The text below walks through data of PubChem BioAssay AID1918942 (Molecular Pharmacology Branch, DTP, NCI, 2023).

This test deals with 743489-274-T-PDC complex spheroid viability. The test can be described thus: Anticancer human tumor 743489-274-T-PDC patient-derived renal cell carcinoma cell line growth inhibition. To be noted: for viability, T/C: stronger effect = lower value; for IC50: curve of compound. The source says:
Multicellular complex tumor spheroid response to LSD1 Inhibitor Iadademstat in combination with a variety of drugs and investigational agents in selected tumor cell lines
The current study was undertaken to assess response to LSD1 inhibitors in combination with standard-of-care drugs and investigational agents in solid tumor complex spheroid models as well as in the K-562 leukemia. Complex spheroids include a stromal component modeled by human endothelial cells (HUVEC) and fibroblasts modeled by human mesenchymal stem cells (MSCs). The concentration ranges selected for each drug and investigational agent were based upon clinically achievable concentrations if the clinical Cmax of the agent was known.
Compounds. The drugs and investigational agents used in this study are listed on Table 1. All of the agents used, including staurosporine (NSC755774) and gemcitabine (NSC613327), were obtained from the Developmental Therapeutics Program, NCI. FDA-approved anticancer drugs are available from the NCI at http://dtp.nci.nih.gov/branches/dscb/oncology_drugset_explanation.html. Drugs and investigational agents were >95% pure by proton nuclear magnetic resonance (NMR) and liquid chromatography/mass spectrometry (LC/MS). Stock solutions were prepared at 400x in DMSO, stored at -70 degrees C, and diluted in fresh medium prior to their use. The final concentration of DMSO in cell culture wells never exceeded 0.25% (v/v). The FDA-approved anticancer drug set is available from the Developmental Therapeutics Program at https://dtp.cancer.gov/organization/dscb/obtaining/available_plates.htm. All drugs and investigational agents were tested over a range starting from a high concentration at or near the clinical Cmax and decreasing in half-log increments. If the clinical Cmax for an agent had not been determined, the highest concentration tested was 10 microM.
Cell Lines. The patient-derived cancer cell (PDC) lines: 292921-168-R-J2-PDC, K24384-001-R-PDC, and 521955-158-R2-J5-PDC pancreatic carcinomas, 556581-035-R-J1 ovarian carcinoma, 324938-238-R-J1-PDC, 855422-203-R-J1-PDC and 883617-216-R-J1-PDC urothelial bladder carcinomas, 743489-274-T-PDC renal cell carcinoma, 138582-R-J1 Merkel cell tumor, K60290-347-R-J1 and K57222-313-R-J1-PDC glioblastomas, 653999-131-R-J2-PDC, LG0703-F948-PDC, and 349418-098-R-PDC non-small cell lung carcinomas, 885512-296-R-J2-PDC, 171881-019-R-J1-PDC breast carcinomas and 186277-243-T-J2-PDC and 233499-124-R-J2-PDC colon carcinomas were obtained from the NCI Patient-Derived Models Repository (PDMR, https://pdmr.cancer.gov). The established cell lines NCI/ADR-RES (RRID:CVCL_14520 and OVCAR-5 (RRID:CVCL_1628) ovarian carcinomas, 786-O (RRID:CVCL_1051) and A498 (RRID:CVCL_A498) renal cell carcinoma, NCI-H211 (ATCC, cat. CRL-5824; RRID:CVCL_1529), NCI-H196 (ATCC, cat. CRL-5823, RRID:CVCL_1509), SW 1271 (ATCC, cat. CRL-2177, RRID:CVCL_1716) and NCI-H1876 (ATCC, cat. CRL-5902, RRID:CVCL_1503) small cell lung carcinomas, MDA-MB-231 (RRID:CVCL_0062) and MDA-MB-468 (RRID:CVCL_0419)breast carcinomas (10-12). Pooled donor human umbilical vein endothelial cells (HUVEC, Lonza, cat. CC-2519) and human mesenchymal stem cells (hMSC, Lonza, cat. PT-2501) were purchased from Lonza (Walkersville, MD).
Cell Culture. All cells were maintained in an incubator at 37 degrees C and 5% CO2 with 95% humidity. The PDC lines were cultured according to standard operating procedures established by the NCI PDMR (https://pdmr.cancer.gov). Briefly all PDCs were thawed and cultured in Matrigel-coated flasks prepared with a working solution of 1X Ham's F-12 nutrient mix, without supplementation (Invitrogen, Waltham, MA, cat. 11765054), 100 U/mL penicillin-streptomycin (Invitrogen, cat. 15140122), and 2.5% Matrigel (Corning Inc., Corning, NY, cat. 354248) for the first three passages. […]

Where “and” joins values, the source holds several entries; their conditions need not be identical. Equal values may be shown once. Where only a bound is given, the exact number is not on record here.
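Also: spheroids exposed to compounds for 7 days before readout.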
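For viability, T/C in this document: 100% = DMSO vehicle control wells.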

As to `CC(C)CC(NC(=O)C(Cc1ccccc1)NC(=O)c1cnccn1)B(O)O` (stereo not drawn), the concentration for half-maximal inhibition (IC50) was 7.31 nM and 8.09 nM. Further, the viability, T/C (compound 0.000316 µM) was 102% and 104%. In addition, the viability, T/C (compound 0.001 µM) is 93.9% and 105%. Also, where the note is “compound 0.00316 µM”, the viability, T/C is 106% and 94.2%. Besides, the viability, T/C (compound 0.01 µM) is 31% and 40%. In addition, the viability, T/C (compound 0.0316 µM) was 26.9% and 31.4%. The viability, T/C (compound 0.1 µM) was 24.4% and 27.6%.

Regarding `CC(C)CC(NC(=O)CNC(=O)c1cc(Cl)ccc1Cl)B1OC(=O)CC(CC(=O)O)(C(=O)O)O1` (stereo not drawn), the half-inhibitory concentration (IC50) was > 100 nM and 84.7 nM. Besides, the viability, T/C (compound 0.000316 µM) was 97.9% and 109%. For the same compound, for the setting “compound 0.001 µM”, the viability, T/C was 89.1% and 112%. Under “compound 0.00316 µM”, the viability, T/C was 99.5% and 94.1%. In addition, the viability, T/C (compound 0.01 µM) was 84.9% and 83.3%. In addition, where the note is “compound 0.0316 µM”, the viability, T/C was 84% and 76.2%. Further, the viability, T/C (compound 0.1 µM) is 58.8% and 44.4%.

For `CC1(C)CCC(CN2CCN(c3ccc(C(=O)NS(=O)(=O)c4ccc(NCC5CCOCC5)c([N+](=O)[O-])c4)c(Oc4cnc5[nH]ccc5c4)c3)CC2)=C(c2ccc(Cl)cc2)C1`, the IC50 is > 10000 nM. The viability, T/C (compound 0.0316 µM) was 90.8% and 100%. Moreover, the viability, T/C (compound 0.1 µM) was determined as 108%. The viability, T/C (compound 0.316 µM) is 104% and 109%. Further, the viability, T/C (compound 1 µM) is 113% and 111%. Also, the viability, T/C (compound 3.16 µM) was 128% and 106%. For the same compound, the viability, T/C (compound 10 µM) was 120% and 122%.

As for `CC1COCCN1c1cc(-c2ccnn2C)c2ccnc(-c3ccn[nH]3)c2n1` (stereo not drawn), the IC50 was > 1000 nM. Moreover, for the setting “compound 0.00316 µM”, the viability, T/C is 102% and 81.5%. Moreover, where the note is “compound 0.01 µM”, the viability, T/C was 107%. Further, under “compound 0.0316 µM”, the viability, T/C is 78.8% and 87.5%. The viability, T/C (compound 0.1 µM) is 70.9% and 71.9%. Further, the viability, T/C (compound 0.316 µM) is 71.5% and 56.4%. Besides, the viability, T/C (compound 1 µM) is 64.2% and 53.2%.

As to `CCN(c1cc(-c2ccc(CN3CCOCC3)cc2)cc(C(=O)NCc2c(C)cc(C)[nH]c2=O)c1C)C1CCOCC1`, the IC50 was > 3000 nM. For the same compound, the viability, T/C (compound 0.00949 µM) was 106% and 107%. Besides, under “compound 0.03 µM”, the viability, T/C was 94.5% and 105%. The viability, T/C (compound 0.0949 µM) is 87.8% and 92.8%. Also, the viability, T/C (compound 0.3 µM) is 97.2% and 111%. Further, the viability, T/C (compound 0.949 µM) was 98.5% and 105%. The viability, T/C (compound 3 µM) is 95.9% and 105%.

Consider `CC[C@@]1(O)C(=O)OCc2c1cc1n(c2=O)Cc2cc3c(CN(C)C)c(O)ccc3nc2-1`, for which the half-inhibitory concentration (IC50) was > 100 nM. For the same compound, where the note is “compound 0.000316 µM”, the viability, T/C is 103% and 92.9%. For the same compound, where the note is “compound 0.001 µM”, the viability, T/C was 104% and 83.4%. In addition, the viability, T/C (compound 0.00316 µM) was 96.5% and 72.1%. For the setting “compound 0.01 µM”, the viability, T/C was 86.4% and 76.7%. For the setting “compound 0.0316 µM”, the viability, T/C was 75.1% and 60.3%. For the setting “compound 0.1 µM”, the viability, T/C was 63.7% and 57.8%.

As for `CCc1c2c(nc3ccc(O)cc13)-c1cc3c(c(=O)n1C2)COC(=O)[C@]3(O)CC`, the IC50 is 20.7 nM and 5.36 nM. In addition, the viability, T/C (compound 0.000949 µM) was 88.1% and 71.3%. For the same compound, the viability, T/C (compound 0.003 µM) was 68% and 54.2%. The viability, T/C (compound 0.00949 µM) is 61.9% and 44.5%. For the same compound, the viability, T/C (compound 0.03 µM) was 40.2% and 45.4%. Also, the viability, T/C (compound 0.0949 µM) is 45.4% and 44.3%. Also, the viability, T/C (compound 0.3 µM) is 43.2% and 39.3%.

For `COc1cc(C2c3cc4c(cc3C(OC3OC5COC(C)OC5C(O)C3O)C3COC(=O)C23)OCO4)cc(OC)c1O` (stereo not drawn), the IC50 was > 3000 nM. For the setting “compound 0.00949 µM”, the viability, T/C was 98.2% and 111%. Besides, the viability, T/C (compound 0.03 µM) was 114% and 112%. Under “compound 0.0949 µM”, the viability, T/C is 70.3% and 81.1%. Besides, under “compound 0.3 µM”, the viability, T/C was 92.8% and 99.4%. The viability, T/C (compound 0.949 µM) was 98.9% and 88.8%. Where the note is “compound 3 µM”, the viability, T/C was 82% and 91.5%.

As for `COc1cc(Nc2ncc3c(n2)-c2ccc(Cl)cc2C(c2c(F)cccc2OC)=NC3)ccc1C(=O)O`, the IC50 was > 1000 nM. For the same compound, the viability, T/C (compound 0.00316 µM) was 102% and 91.3%. The viability, T/C (compound 0.01 µM) is 91.3% and 102%. Moreover, the viability, T/C (compound 0.0316 µM) was 89.6% and 92%. For the setting “compound 0.1 µM”, the viability, T/C was 92.6% and 90.8%. In addition, the viability, T/C (compound 0.316 µM) was 94.2% and 87.2%. For the same compound, the viability, T/C (compound 1 µM) was 91.7% and 67.7%.
